Reference: patent US20120148647A1, “Photoresponsive Sunscreen Composition” (Blueshift Pharma GmbH, priority 2009, published 2012)
Read-outs that look alike come from different tables or passages of the source.

Experiments:
[1] = cited from earlier work
[2] = Predicted SPF calculated from absorption spectra; type: physicochemical
Source text: Predicted SPFs can be accurately determined from absorption spectra using standardized calculations based on the erythemal action spectrum, and such predicted SPFs correlate very well with in vivo determined SPFs. Corresponding algorithms for calculating SPF values are known in the art and corresponding computer programs are available; see, for example, http://www.sunscreensimulator.basf.com/Sunscreen_Simulator. Using the absorption spectrum shown in FIG. 2, the predicted SPF of a composition containing the deprotonated form of Padimate-O is approximately 10-fold higher than that of a composition containing the protonated form. With Benzophenone-4 (FIG. 1), the protonated form provides a composition having approximately 3 times the SPF as a composition containing the deprotonated form.

[3] = UV absorbance spectra in protonated and deprotonated form (different pH, or before and after HCl); type: physicochemical; settings: FIGS. 1 to 4
Source text: Methods to determine if a given sunscreen agent measurably changes its absorbance of UV radiation upon protonation or deprotonation will be readily available to the skilled person, but include a method summarised by the following steps. First, identify a suitable solvent for said sunscreen agent. Such a solvent may be hydrophilic (eg water or glycerine) organic/protic (eg ethanol, isopropanol or octanol), organic/polar aprotic (eg DMSO, acetonitrile or dichloromethane) or organic/unipolar (eg hexane, hexadecane or diethylether). Second, record the UV-Visible (200 nm-800 nm) absorbance spectra of a solution of the sunscreen agent using a suitable photospectrometer (such as a Beckmann DU-640 Spectrometer as described in the examples herein). Third, take an aliquot of the sunscreen UV filter solution and add a strong acid (eg trifluoroacetic acid, or hydrochloric acid, or perchloric acid) and record its UV-Visible absorbance spectra. Neutralize with a base (see next step) to check for reversibility and record the UV-Visible absorbance spectra again. Fourth, take another aliquot of the sunscreen UV filter solution and add a strong base (eg NaOH, KOH, Triethylamine, Tris(hydroxymethyl)aminomethane (TRIS)) and record its UV-Visible absorbance spectra. Neutralize with an acid (see previous step) to check for reversibility and record the resulting UV-Visible absorbance spectra. Fifth, repeat the above steps with (a) more than one acid, (b) more than one base and (c) more than one solvent to exclude artifacts from specific UV-filter-ion interactions, or specific UV-filter-solvent interactions. Conclusion: measureable changes in UV absorbance that are observed in one or more of such repeat experiments for a give sunscreen agent identify that such sunscreen agent is a suitable sunscreen agent for use in the context of the present invention.
The pH was adjusted with NaOH/HCl in aqueous solution.

[4] = excited state after light absorption; cited from earlier work

SMILES: COc1ccc(C(=O)c2ccccc2)c(O)c1 [oxybenzone]
- oxybenzone degraded ([1]; irradiation of oxybenzone and titanium dioxide, after 20 min of UV exposure): about 70%
- oxybenzone degraded ([1]; solution containing oxybenzone alone, after 260 min): 50%

SMILES: COc1cc(O)c(C(=O)c2ccccc2)cc1S(=O)(=O)O [Benzophenone-4]
- SPF of composition with protonated form relative to deprotonated form ([2]; from absorption spectra of FIG. 1 (ethanol/water, pH 5 to 12)): approximately 3 times
- effect of protonation state on UV absorption [3]: protonated state being the from that absorbs more UVB radiation

SMILES: Oc1cccc2ccccc12 [Example 1-naphthol, 1-naphthol]
- pKa in the excited state [4]: 0.4

SMILES: CCCCCCOC(=O)c1ccccc1C(=O)c1ccc(N(CC)CC)cc1O [2-(4-diethylamino-2-hydroxybenzoyl)-benzoic acid hexylester]
- effect of protonation state on UV absorption [3]: largely inactive in its protonated form

SMILES: Nc1ccc(C(=O)O)cc1 [PABA, p-aminobenzoic acid]
- effect of protonation state on UV absorption [3]: absorbs less UV radiation

SMILES: CCCCC(CC)COC(=O)c1ccc(N(C)C)cc1 (stereo not drawn) [Padimate-O, Ethylhexyl Dimethyl PABA]
- predicted SPF of composition with deprotonated form relative to protonated form ([2]; from absorption spectrum of FIG. 2 (acetonitrile, before/after equimolar HCl)): approximately 10 fold
- effect of protonation state on UV absorption [3]: shifts the absorption maximum of padimate-O from the UVB region to UVC
